# From US20190117667A1, “ANTICANCER ACTIVITY OF PLATINUM(II) TETRASELENONE COMPLEXES” (King Fahd University of Petroleum and Minerals, priority 2017, published 2019)
# Several values for one entry are separate records, joined by “and”; a condition that tells them apart may be missing. Equal entries are not always repeated. Where two headings read alike, the source gives them in different places.
# What was measured:
# [1] = system: human ovarian carcinoma A2780 cells; test: MTT in vitro cytotoxicity assay, A2780; type: cell-based; settings: triplicate, tested up to 50 μM
# Description: (§1) All the human cancer cell lines were purchased from European Collection of Cell Cultures (ECACC). The cells were cultivated according to the manufacturer's manuals and maintained in an atmosphere containing 5% CO2 in a humidified incubator at 37° C. The experimental procedure was performed according to the literature. See R. […], PLoS One, 2014, 9(9), e107373, incorporated herein by reference in its entirety. All the experiments were conducted in triplicate. The results were expressed as ICso values along with standard deviations (SD). The significance of the differences between the compared groups of results was assessed by the ANOVA analysis, with p<0.05 considered to be significant (QC Expert 3.2, Statistical software, TriloByte Ltd.). See QC Expert 3.2, Statistical software, TriloByte Ltd., Pardubice, Czech Republic. 2009, incorporated herein by reference in its entirety.
# [2] = system: ovarian carcinoma resistant to cisplatin (A2780R) cells; test: MTT in vitro cytotoxicity assay, A2780R; type: cell-based, human; settings: triplicate, tested up to 50 μM, read-out: In vitro cytotoxicity IC50 ± S.D., A2780R
# Description: as §1
# [3] = system: prostate carcinoma (22Rv1) cells; test: MTT in vitro cytotoxicity assay, 22Rv1; type: cell-based, human; settings: for IC50: triplicate, tested up to 50 μM, read-out: In vitro cytotoxicity IC50 ± S.D., 22RvI
# Description: as §1
# [4] = system: human breast adenocarcinoma (MCF7) cells; test: MTT in vitro cytotoxicity assay, MCF7; type: cell-based; settings: triplicate, tested up to 50 μM, read-out: In vitro cytotoxicity IC50 ± S.D., MCF7
# Description: as §1
# [5] = ESI-MS stability and interaction with L-cysteine and reduced glutathione; type: physicochemical; settings: methanol:water (1:1, v/v), complex 10 μM, Cys 290 μM, GSH 6 μM, immediately vs 24 h after preparation
# Description: In order to describe the behavior of complexes in different media, i.e. to better understand their stability in protogenic media and interactions of the complexes with sulfur-containing biomolecules under physiological conditions, mass spectrometric experiments involving the interacting systems, containing the mixture of L-cysteine and reduced L-glutathione, were performed.
# The electrospray-ionization mass spectrometry (ESI-MS) was used to perform the interaction experiments of the selected two cytotoxic platinum(II) complexes 4 and 5 using the ThermoLCQ Fleet Ion Trap mass spectrometer, in positive ionization mode. […] The measured solutions were injected into the mass spectrometer using the HPLC autosampler (Ultimate 3000, Dionex) in 10 μL spikes. The mass spectra were recorded in the range of 50-1400 m/z. […]
# The stability in methanol:water (1:1, v/v) solutions as compared to the pure methanol and interactions of complexes in methanol:water (1:1, v/v)solutions containing the complexes 4 and 5 at the final concentrations of 10 μM and the physiological levels of L-cysteine (Cys) and L-glutathione (GSH), at 290, and 6 μM concentration, respectively, were measured by ESI+MS immediately after preparation and 24 h after preparation. […] The spectra measured immediately after preparation contained mostly the ionic species similar to those identified in reference methanol solutions. […]
# [6] = Solubility in deuterated solvents for 195Pt NMR; type: physicochemical; settings: for 195Pt NMR spectra
# Description: The FTIR spectra of the ligands and their platinum(II) complexes were carried out on a Nicolet 6700 FTIR spectrophotometer using KBr pellets in the range between 4000 to 400 cm^−1. The ^1H, ^13C and ^77Se NMR spectra were recorded in DMSO-d6 on a Jeol JNM 500 NMR spectrophotometer operating at 500.01, 125.65 and 95.35 MHz respectively. The spectral conditions were; 32 K data points, 0.963 s acquisition time, 3.2 s pulse delay and a 5.75 μs pulse width for ^1H NMR, and 32 K data points, 0.963 s acquisition time, 2.0 s pulse delay and a 5.12 μs pulse width for ^13C NMR. The chemical shifts were measured relative to TMS. The ^77Se NMR chemical shifts were recorded relative to external reference (NaHSeO3 in D2O) at 1308.00 ppm, using 2.0 s pulse delay and using 0.311 s acquisition time. The ^195Pt NMR spectra were recorded in methanol-d4 using a Varian 400 MHz NMR spectrometer at 298 K. The spectra were referenced with respect to potassium tetrachloridoplatinate(II) in D2O at 0 ppm.
# The ^195Pt NMR spectroscopy was also employed for thorough characterization of the prepared complexes, as the number of signals and their chemical shift in the ^195Pt NMR spectra provide efficient evidence about the purity and, also generally, the coordination environment of the metal. […]
# testicular cancer = settings: cited from earlier work
# [7] = read-out: In vitro cytotoxicity IC50 ± S.D., A2780
Structure (SMILES),"IC50 [1, 7]",IC50 [2],IC50 [3],IC50 [4],"IC50 ([1]; listed as 5, read-out: In vitro cytotoxicity IC50 ± S.D., A2780)",Ligand exchange reactions with L-cysteine and reduced glutathione [5],"Solubility in methanol-d4 and deuterated N,N-dimethylformamide [6]",Cure rate in testicular cancer (testicular cancer; treatment of testicular cancer),"Cure rate in testicular cancer, tumors discovered early (testicular cancer; when tumors are discovered early)",Cytotoxicity against 22Rv1 cells (in words) [3]
"CCN1CCNC1=[Se].CCN1CCNC1=[Se].CCN1CCNC1=[Se].CCN1CCNC1=[Se].[Cl-].[Cl-].[Pt+2] [Complex 3, [Pt(N-ethylimidazolidine-2-selenone)4]Cl2]",> 50 µM,> 50 µM,> 50 µM,> 50 µM,,,,,,
"CC(C)N1CCNC1=[Se].CC(C)N1CCNC1=[Se].CC(C)N1CCNC1=[Se].CC(C)N1CCNC1=[Se].[Cl-].[Cl-].[Pt+2] [Complex 5, [Pt(N-isopropylimidazolidine-2-selenone)4]Cl2]",44.7 µM,> 50 µM,> 50 µM,> 50 µM,30.8 µM,relatively rapid,,,,
[Cl-].[Cl-].[Pt+2].[Se]=C1NCCCCN1.[Se]=C1NCCCCN1.[Se]=C1NCCCCN1.[Se]=C1NCCCCN1 [Complex 7],> 50 µM,> 50 µM,> 50 µM,> 50 µM,,,,,,
[Cl-].[Cl-].[Pt+2].[Se]=C1NCCN1.[Se]=C1NCCN1.[Se]=C1NCCN1.[Se]=C1NCCN1 [Complex 2],> 50 µM,> 50 µM,> 50 µM,> 50 µM,,,insufficient solubility,,,
N.N.[Cl][Pt][Cl] [Cisplatin],,,,,,,,over 90%,~100%,
CCCN1CCNC1=[Se].CCCN1CCNC1=[Se].CCCN1CCNC1=[Se].CCCN1CCNC1=[Se].[Cl-].[Cl-].[Pt+2] [Complex 4],44.7 µM and 30.8 µM,> 50 µM,46.2 ± 3.8 µM,> 50 µM,,relatively rapid,,,,some cytotoxicity
[Cl-].[Cl-].[Pt+2].[Se]=C1NCCCN1.[Se]=C1NCCCN1.[Se]=C1NCCCN1.[Se]=C1NCCCN1 [Complex 6],> 50 µM,> 50 µM,> 50 µM,> 50 µM,,,,,,
NC(N)=[Se].NC(N)=[Se].NC(N)=[Se].NC(N)=[Se].[Cl-].[Cl-].[Pt+2] [Complex 1],,,,,,,insufficient solubility,,,
